From the NIST ThermoML archive (doi:10.1021/acs.jced.8b00487)
“And” between values parts separate entries of the source, which are not always exact repeats. Identical values can stand only once. ± gives the expanded uncertainty stated by the source.

Conditions: 298.15 K, Liquid, Vibrating tube method

What does the source list for CCCCC(CC)COP(=O)(O)OCC(CC)CCCC (configuration not stated) [bis(2-ethylhexyl) hydrogen phosphate]?
mass density (101 kPa): 971 ± 2 kg/m3 and 970.5 ± 2 kg/m3; mass density (101.33 kPa): 969.1 ± 0.6 kg/m3
